Test systems include SK-MEL-28 melanoma; SF-268 CNS; BT-549 breast; RXF 393 renal; SF-295 CNS; OVCAR-3 ovarian; U251 CNS; CCRF-CEM leukemia; NCI-H522 lung; UO-31 renal.
Common to all, as to assay: growth of human tumour cells (NCI), 48 h

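Growth conditions: 96-well plates. Treatment: test compound, 48 hours, 5 concentrations. Analysis: linear interpolation between bracketing concentrations; unreached endpoints set to highest concentration. At the GI50, growth is halved. Definition used: TGI = concentration required for complete inhibition of growth.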

`O=C(O)/C(=C\c1ccncc1)c1cccc2ccccc12`: the TGI with SK-MEL-28 melanoma, in the experiment with SF-268 CNS, with BT-549 breast, in the experiment on RXF 393 renal, in the experiment on SF-295 CNS and with OVCAR-3 ovarian was over 100 µM in each case. Moreover, the TGI in the experiment with U251 CNS, in the experiment on CCRF-CEM leukemia and with NCI-H522 lung was over 100 µM throughout.
Regarding `Nc1c(C(=O)Nc2cccc(Cl)c2Cl)sc2nc3c(cc12)C(=O)CCC3`, the GI50 is over 100 µM in the experiment on SK-MEL-28 melanoma; over 100 µM in the experiment on UO-31 renal; over 100 µM in the experiment on SF-268 CNS; over 100 µM with BT-549 breast; over 100 µM in the experiment on RXF 393 renal; 0.476 µM in the experiment on SF-295 CNS. Besides, the GI50 in the experiment on OVCAR-3 ovarian, in the experiment on U251 CNS, in the experiment on CCRF-CEM leukemia and in the experiment on NCI-H522 lung was over 100 µM in each case. Further, the TGI in the experiment on SK-MEL-28 melanoma, in the experiment with UO-31 renal, in the experiment on SF-268 CNS, with BT-549 breast, in the experiment on RXF 393 renal and in the experiment with SF-295 CNS was over 100 µM in each case. The TGI in the experiment with OVCAR-3 ovarian, in the experiment on U251 CNS, in the experiment on CCRF-CEM leukemia and with NCI-H522 lung was over 100 µM in each case.
For the compound `CC[C@H](C)C(=O)O[C@H]1C[C@H](O)C=C2C=C[C@H](C)[C@H](CC[C@@H](O)C[C@@H](O)CC(=O)O)[C@H]21`, the GI50 with SK-MEL-28 melanoma, in the experiment on UO-31 renal, with SF-268 CNS, with BT-549 breast, with RXF 393 renal and in the experiment with SF-295 CNS was over 100 µM throughout. The GI50 with OVCAR-3 ovarian was over 100 µM; with U251 CNS, over 100 µM; in the experiment on CCRF-CEM leukemia it was over 100 µM; in the experiment on NCI-H522 lung, 63 µM. Besides, the TGI in the experiment with SK-MEL-28 melanoma, in the experiment with UO-31 renal, with SF-268 CNS, with BT-549 breast, with RXF 393 renal and in the experiment with SF-295 CNS was over 100 µM throughout. For the same compound, the TGI with OVCAR-3 ovarian, in the experiment on U251 CNS, with CCRF-CEM leukemia and in the experiment with NCI-H522 lung was over 100 µM each time.
Regarding `Cc1coc2c1C(OC(=O)C(C)C)C1(C)C(C)CCC(O)C1C2=O` (stereo not drawn), the TGI in the experiment on SK-MEL-28 melanoma is over 100 µM; with UO-31 renal it was over 100 µM; in the experiment with SF-268 CNS, over 100 µM; in the experiment with BT-549 breast, over 95 µM; with RXF 393 renal, over 100 µM; with SF-295 CNS, over 100 µM. Also, the TGI in the experiment with OVCAR-3 ovarian, in the experiment with U251 CNS, in the experiment with CCRF-CEM leukemia and with NCI-H522 lung was over 100 µM throughout.
On to `C=CC1=C(C)C2=NC1=CC1=NC(=C(CC)/C1=C\O)C=C1N=C3C(=C1C)C(=O)[C@H](C(=O)OC)C3=C1NC(=C2)[C@@H](C)[C@@H]1CCC(=O)O`, for which the TGI was over 100 µM with SK-MEL-28 melanoma; over 100 µM with UO-31 renal; over 100 µM in the experiment on SF-268 CNS; over 100 µM in the experiment with BT-549 breast; 13.3 µM in the experiment with RXF 393 renal; over 100 µM in the experiment on SF-295 CNS. The TGI in the experiment on U251 CNS, in the experiment on CCRF-CEM leukemia and in the experiment on NCI-H522 lung was over 100 µM throughout.
Take `COc1cccc2c1n([O-])c1cccc(OC)c1[n+]2=O`: the GI50 with UO-31 renal is 6.7 µM; with SF-268 CNS, 6.71 µM; in the experiment on BT-549 breast, 8.1 µM; in the experiment on RXF 393 renal it was 19.3 µM; with SF-295 CNS, 3.03 µM; in the experiment with OVCAR-3 ovarian, 17.6 µM. Also, the GI50 with U251 CNS was 10.4 µM; in the experiment on CCRF-CEM leukemia it was 3.49 µM; in the experiment on NCI-H522 lung it was 5.77 µM. For the same compound, the TGI with UO-31 renal is 32.7 µM; with SF-268 CNS, 35.3 µM; in the experiment on BT-549 breast it was 21.8 µM; in the experiment on RXF 393 renal, over 100 µM; with SF-295 CNS, 18.5 µM; with OVCAR-3 ovarian, over 100 µM. In addition, the TGI with U251 CNS stood at 48.2 µM; with CCRF-CEM leukemia it was 35.7 µM; with NCI-H522 lung it was 28.1 µM.
For `O=C(O)C(Oc1nc(=S)[nH]c(=S)[nH]1)(c1ccc(Cl)cc1)c1ccc(Cl)cc1`, the TGI with SK-MEL-28 melanoma, with UO-31 renal, in the experiment on SF-268 CNS, with BT-549 breast, in the experiment on RXF 393 renal and in the experiment with SF-295 CNS was over 100 µM in each case. For the same compound, the TGI with OVCAR-3 ovarian, with U251 CNS and in the experiment on NCI-H522 lung was over 100 µM throughout.
As to `O=C(c1ccccc1)c1c(C(F)(F)F)n([O-])c2ccc(C(F)(F)F)cc2[n+]1=O`, the GI50 with SK-MEL-28 melanoma was 0.507 µM; in the experiment with UO-31 renal, 0.173 µM; with SF-268 CNS it was 0.195 µM; with BT-549 breast, 0.125 µM; in the experiment on RXF 393 renal it was 0.175 µM; in the experiment with SF-295 CNS, 0.548 µM. In addition, the GI50 in the experiment with OVCAR-3 ovarian is 0.252 µM; in the experiment with U251 CNS, 0.166 µM; in the experiment on CCRF-CEM leukemia, 0.281 µM; in the experiment on NCI-H522 lung, 0.306 µM. The TGI in the experiment with SK-MEL-28 melanoma was 0.957 µM; in the experiment with UO-31 renal it was 0.322 µM; in the experiment on SF-268 CNS it was 0.449 µM; with BT-549 breast it was 0.269 µM; with RXF 393 renal, 0.342 µM; with SF-295 CNS, 1.11 µM. Moreover, the TGI in the experiment with OVCAR-3 ovarian is 0.66 µM; in the experiment on U251 CNS, 0.305 µM; in the experiment with CCRF-CEM leukemia, 1.41 µM; with NCI-H522 lung, 0.971 µM.
As to `C[C@@H](Nc1nc(Nc2ccc(F)c(Cl)c2)nc2ccccc12)C1CC1`, the GI50 in the experiment on SK-MEL-28 melanoma is 2.86 µM; in the experiment with UO-31 renal, 2.62 µM; with SF-268 CNS, 6.43 µM; with BT-549 breast, 2.51 µM; with SF-295 CNS, 1.88 µM; with OVCAR-3 ovarian it was 3.21 µM. Also, the figures for the GI50 with U251 CNS, in the experiment with CCRF-CEM leukemia and in the experiment with NCI-H522 lung were 3.72 µM, 2.25 µM and 4.32 µM, respectively. The TGI in the experiment with SK-MEL-28 melanoma turned out to be 11.8 µM; in the experiment with UO-31 renal, 14 µM; in the experiment on SF-268 CNS, 26.8 µM; in the experiment with BT-549 breast it was 7.3 µM; with SF-295 CNS, 8.92 µM; in the experiment on OVCAR-3 ovarian it was 12.7 µM. Also, the TGI in the experiment on U251 CNS amounted to 14.5 µM; in the experiment on CCRF-CEM leukemia it was 7.12 µM; in the experiment with NCI-H522 lung it was 19.5 µM.
